Data: US20240158418A1 (C4 Therapeutics, Inc., priority 2021, published 2024)

Target: T1, EGFR L858R-T790M (Homo sapiens, UniProt P00533, L858R/T790M)
T1 construct: NCI-H1975 (harboring EGFR heterozygous L858R-T790M mutations); host or cells: NCI-H1975
Assay: EGFR degradation, Total EGFR (L858R-specific) HTRF, NCI-H1975
Assay type: cell-based
Conditions: Table 9A; NCI-H1975 cells, 6 hours, Total EGFR HTRF; read-out: H1975 EGFR DC50
Description: NCI-H1975 (harboring EGFR heterozygous L858R-T790M mutations) and NCI-H3255 (harboring EGFR heterozygous L858R mutation) were purchased from ATCC and NCI, respectively. NCI-H1975+CS (harboring EGFR heterozygous L858R-T790M-C797S mutations) was generated using CRISPR technology to introduce the additional C797S mutation by Horizon Discovery. A431 (harboring EGFR wildtype) was purchased from ATCC. RPMI 1640 no-phenol red medium and fetal bovine serum (FBS) were purchased from Gibco (Grand Island, NY, USA). Cell culture flasks and 384-well microplates were acquired from VWR (Radnor, PA, USA). Phosphorylated (pY1068) EGFR and Total EGFR (using L858R-specific detection antibody and pan-EGFR antibody for EGFR mutant cell lines and EGFR wild-type cell lines, respectively) HTRF assay kits were purchased from Cisbio (Bedford, MA, USA).
Degradation of EGFR protein containing L858R mutation or wild-type was determined based on quantification of FRET signal using a Total EGFR (L858R-specific or pan-EGFR detecting) HTRF assay kit. Phospho-EGFR (pEGFR) inhibition was determined based on quantification of FRET signal using a pY1068 EGFR HTRF assay kit. In separate assay plates, test compounds were added to the 384-well plate from a top concentration of 10 μM with 11 points, half log titration in duplicates. For each assay, 12.5 uL of cells suspended in assay media (RPMI 1640 no-phenol red medium+10% FBS) at cell densities indicated for each cell line in Table 8 below were dispensed using a multi-channel pipette to 384-well low volume white HTRF microplates containing a duplicate concentration range of test compounds and DMSO controls. The plates were kept at 37° C. with 5% CO2 for 6 hours and then incubated with either phospho EGFR or Total EGFR HTRF detection antibodies according to the cell line and EGFR mutant being assayed. Cells treated in the absence of the test compound were the negative control. Positive control was set by wells containing all reagents but no cells. FRET signal was acquired on EnVision™ Multilabel Reader (PerkinElmer, Santa Clara, CA, USA). Compound concentration that achieves 50% degradation and inhibition was reported as DC50 and IC50, respectively.

T1 sequence (P00533 25-1210 T790M/L858R): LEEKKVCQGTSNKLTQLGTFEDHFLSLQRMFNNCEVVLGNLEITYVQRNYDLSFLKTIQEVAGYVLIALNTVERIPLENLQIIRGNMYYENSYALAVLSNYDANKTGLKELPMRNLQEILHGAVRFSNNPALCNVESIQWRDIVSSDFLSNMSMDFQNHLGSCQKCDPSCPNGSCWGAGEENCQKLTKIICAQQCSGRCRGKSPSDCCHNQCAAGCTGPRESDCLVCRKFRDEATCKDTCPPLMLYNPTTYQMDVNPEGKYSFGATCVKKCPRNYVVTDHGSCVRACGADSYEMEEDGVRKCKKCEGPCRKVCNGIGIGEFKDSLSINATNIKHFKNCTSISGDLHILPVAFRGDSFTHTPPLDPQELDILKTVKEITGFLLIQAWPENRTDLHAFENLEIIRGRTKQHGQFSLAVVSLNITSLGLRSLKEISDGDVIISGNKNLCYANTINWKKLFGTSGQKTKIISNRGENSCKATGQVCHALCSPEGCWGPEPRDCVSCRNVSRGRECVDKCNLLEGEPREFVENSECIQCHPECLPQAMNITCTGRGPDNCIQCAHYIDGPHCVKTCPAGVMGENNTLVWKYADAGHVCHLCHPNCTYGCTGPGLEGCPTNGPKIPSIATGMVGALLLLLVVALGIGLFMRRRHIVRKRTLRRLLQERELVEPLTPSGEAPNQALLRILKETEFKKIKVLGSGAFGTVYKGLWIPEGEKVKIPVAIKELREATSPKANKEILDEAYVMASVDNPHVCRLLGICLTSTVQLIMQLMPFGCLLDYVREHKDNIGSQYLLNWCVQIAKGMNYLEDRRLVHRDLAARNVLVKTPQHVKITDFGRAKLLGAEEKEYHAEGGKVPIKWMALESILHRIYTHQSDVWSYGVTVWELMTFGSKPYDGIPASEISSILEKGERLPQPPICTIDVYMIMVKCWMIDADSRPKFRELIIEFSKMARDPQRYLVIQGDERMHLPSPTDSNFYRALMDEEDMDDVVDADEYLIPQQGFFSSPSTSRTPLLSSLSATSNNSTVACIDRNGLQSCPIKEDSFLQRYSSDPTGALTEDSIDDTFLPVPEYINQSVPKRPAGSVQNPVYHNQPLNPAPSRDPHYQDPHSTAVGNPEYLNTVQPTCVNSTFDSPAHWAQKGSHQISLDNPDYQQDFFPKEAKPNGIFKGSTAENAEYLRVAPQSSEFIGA

SMILES | DC50
O=C1CCC(Nc2ccc(C3CCN(CC(=O)N4CCN(c5ccc(-c6cc(Cl)c7cn(C(C(=O)Nc8nccs8)c8ncn9c8CCC9)nc7c6Cl)cc5)CC4)CC3)cc2)C(=O)N1 (racemic) [Compound 61, (2RS)-2-[4,7-Dichloro-6-[4-[4-[2-[4-[4-[[(3RS)-2,6-dioxo-3-piperidyl]amino]phenyl]-1-piperidyl]acetyl]piperazin-1-yl]phenyl]indazol-2-yl]-2-(6,7-dihydro-5H-pyrrolo[1,2-c]imidazol-1-yl)-N-thiazol-2-yl-acetamide] | 50 to 150 nM
O=C1CCC(N2Cc3c(OC4CCN(C(=O)CCCN5CCN(c6ccc(-c7ccc8cn(C(C(=O)Nc9nccs9)c9ncn%10c9CCC%10)nc8c7F)cn6)CC5)CC4)cccc3C2=O)C(=O)N1 (racemic) [Compound 62, (2RS)-2-(6,7-Dihydro-5H-pyrrolo[1,2-c]imidazol-1-yl)-2-[7-fluoro-6-[6-[4-[4-oxo-4-[4-[1-oxo-2-[(3RS)-2,6-dioxo-3-piperidyl]isoindolin-4-yl]oxy-1-piperidyl]butyl]piperazin-1-yl]-3-pyridyl]indazol-2-yl]-N-thiazol-2-yl-acetamide] | < 50 nM
O=C1CCC(Nc2ccc(C3CCN(CC(=O)N4CCN(c5ccc(-c6ccc7cn(C(C(=O)Nc8nccs8)c8ncn9c8CCC9)nc7c6F)cn5)CC4)CC3)cc2)C(=O)N1 (racemic) [Compound 63, (2RS)-2-(6,7-Dihydro-5H-pyrrolo[1,2-c]imidazol-1-yl)-2-[7-fluoro-6-[6-[4-[2-[4-[4-[[(3RS)-2,6-dioxo-3-piperidyl]amino]phenyl]-1-piperidyl]acetyl]piperazin-1-yl]-3-pyridyl]indazol-2-yl]-N-thiazol-2-yl-acetamide] | 50 to 150 nM

Same assay, conditions: Table 9B; NCI-H1975 cells, 6 hours, Total EGFR HTRF; read-out: H1975 EGFR DC50

SMILES | DC50
COc1cc(N2CCC(O)(CC(=O)N3CC4(C3)CN(c3ccc(-c5cc(F)c6c(c5)C(=O)N(C(C(=O)Nc5nccs5)c5ncn7c5CCC7)C6)cc3)C4)CC2)c(F)cc1NC1CCC(=O)NC1=O (single isomer, unassigned) [Compound 173, 2-(6,7-dihydro-5H-pyrrolo[1,2-c]imidazol-1-yl)-2-[6-[4-[2-[2-[1-[4-[[2,6-dioxo-3-piperidyl]amino]-2-fluoro-5-methoxy-phenyl]-4-hydroxy-4-piperidyl]acetyl]-2,6-diazaspiro[3.3]heptan-6-yl]phenyl]-4-fluoro-1-oxo-isoindolin-2-yl]-N-thiazol-2-yl-acetamide] | < 50 nM
O=C1CCC(Nc2cc(F)c(N3CCC(O)(CC(=O)N4CC5(C4)CN(c4ccc(-c6cc(F)c7c(c6)C(=O)N(C(C(=O)Nc6nccs6)c6ncn8c6CCC8)C7)cc4)C5)CC3)c(F)c2)C(=O)N1 (single isomer, unassigned; isomer 1) [Compound 119, 2-(6,7-dihydro-5H-pyrrolo[1,2-c]imidazol-1-yl)-2-(6-(4-(6-(2-(1-(4-((2,6-dioxopiperidin-3-yl)amino)-2,6-difluorophenyl)-4-hydroxypiperidin-4-yl)acetyl)-2,6-diazaspiro[3.3]heptan-2-yl)phenyl)-4-fluoro-1-oxoisoindolin-2-yl)-N-(thiazol-2-yl)acetamide, isomer 1] | < 50 nM
O=C1CCC(Nc2ccc(N3CCC(O)(CC(=O)N4CC5(CCN(c6ccc(-c7cc(F)c8c(c7)C(=O)N(C(C(=O)Nc7nccs7)c7ncn9c7CCC9)C8)cc6)CC5)C4)CC3)c(Cl)c2)C(=O)N1 (single isomer, unassigned; isomer 1) [Compound 128, 2-[6-[4-[2-[2-[1-[2-chloro-4-[[2,6-dioxo-3-piperidyl]amino]phenyl]-4-hydroxy-4-piperidyl]acetyl]-2,7-diazaspiro[3.5]nonan-7-yl]phenyl]-4-fluoro-1-oxo-isoindolin-2-yl]-2-(6,7-dihydro-5H-pyrrolo[1,2-c]imidazol-1-yl)-N-thiazol-2-yl-acetamide, isomer 1] | < 50 nM
